Assay results as given in article PMC10892451, “Evaluation of the Antibacterial Activity of New Dermaseptin Derivatives against Acinetobacter baumannii” (Pharmaceuticals, 2024).
Values after ≈ are worked out from the molar mass of the structure shown. Ends that are not written are not given here.

Legend:
[1] = test system: A. baumannii clinical specimen MDR; experiment: microbe, parasite or virus in culture; conditions: for A. baumannii MBC: 10 μL of wells at or above MIC seeded onto Mueller-Hinton agar, clinical MDR isolate, triplicate
Protocol: After determining the MIC, the MBC was assessed against A. baumannii MDR. Meropenem was used as an antibacterial control drug. The loaded solvent saline served as a negative control. […] Meropenem targets Gram-positive and Gram-negative bacteria, as well as anaerobic bacteria. Similar to other carbapenems, meropenem disrupts the synthesis of bacterial cell walls, inhibiting growth and leading to cell death.
(§1) The bacterial strain used in the present study came from the stock culture of the microbiology laboratory of the Federal University of the Delta of Parnaíba—UFDPar, Parnaíba—PI, Brazil. The strain used in the tests was A. baumannii clinical specimen MDR (multidrug resistant), which developed resistance to major antibiotic classes and carbapenem-resistant isolates. Before performing all experiments, the selected strains were cultured in Petri dishes containing Mueller-Hinton agar (Difco™, Piaui, Brazil). Then, under aerobic conditions, they were incubated in a bacteriological oven for 24 h at 35 ± 2 °C. After incubation, the colonies that grew alone were collected with a disposable bacteriological loop and suspended in a sterile saline solution (0.85% NaCl (w/v), Parnaíba—UFDPar, Piaui, Brazil) in order to reach an absorbance pattern between 0.08 and 0.13 at 625 nm, as tested with a UV-vis spectrophotometer (Shimadzu, Japan), thus corresponding to 0.5 McFarland scale (1–2 × 10^8 CFU/mL), as recommended by the Clinical Laboratory Standards Institute CLSI [75]. Once standardized, the obtained bacterial suspension was used to prepare the bacterial inoculum used in the execution of MIC determination protocols.
(§2) In accordance with the standards recommended by CLSI [75], the antibacterial potential of the peptides was evaluated with the method of determining the MIC, i.e., the broth microdilution method. Using a 96-well microdilution plate (KASVI, Parnaíba, Brazil), the antibacterial effect was analyzed against the bacterial strains. Therefore, 5 μL of each peptide was added to the first line of the microtiter wells containing 195 μL Mueller-Hinton (M-H) broth (Life Technologies, New York, NY, USA), followed by two-fold serial dilutions with final concentrations ranging from 25 µg/mL to 0.19 µg/mL for all peptides. The volume of the bacterial inoculum was equal to 50 µL, which was added to the test wells with the M-H broth at the beginning of the experiment to give a final concentration of 5 × 10^5 CFU/mL and to reach a final volume of 100 μL in each well after discarding the last additional volume of 100 μL following the serial dilution. MIC was defined as the lowest concentration of an antibacterial agent expressed in μg/mL, which, under strictly controlled in vitro conditions, completely prevents visible bacterial growth after incubation for 24 h at 37 °C in aerobic conditions. […] All tests were performed in triplicate. In order to guarantee the quality and safety of the protocols of this study, the manipulation of bacterial strains was performed under aseptic conditions.

[2] = test system: A. baumannii clinical specimen MDR; experiment: microbe, parasite or virus in culture; conditions: for A. baumannii MIC: broth microdilution, Mueller-Hinton broth, 5 × 10^5 CFU/mL, 24 h at 37 °C, clinical MDR isolate, triplicate
Protocol: as §1, §2

[3] = test system: HEp-2 cells; experiment: MTT cytotoxicity assay on HEp-2 cells; type: cell-based, human; conditions: peptide concentration causing 50% cytotoxicity, 72 h treatment, 1.5-100 μg/mL, triplicate at three different times
Protocol: It was obtained from the American Type Culture Collection (ATCC, Manassas, VA, USA). Cells were routinely maintained in a humidified atmosphere of 5% CO2 at 37 °C. The Culture Medium Dulbecco’s Modified Eagle Medium (DMEM) (Biofaster, Tunis, Tunisia) was supplemented with 1% L-glutamine, 1% penicillin/streptomycin and 10% (v/v) heat inactivated fetal bovine serum (FBS)(Biofaster, Tunis, Tunisia).
The cytotoxicity test consisted of measuring the viability of cells in culture when they came into contact with the peptides being tested. Cytotoxicity was determined using the 3-(4,5-dimethylthiazol-2-yl)-2,5-diphenyl tetrazolium bromide (MTT) colorimetric assay on cultured cells (HEp-2 lines). […] After 72 h of incubation, the supernatant was collected and the viability of the cells treated with the peptides was determined by the MTT method. […] After 4 h of incubation at 37 °C, the optical density (OD) was measured at 570 nm using an ELISA reader (Multiskan EX, Labsystems, Paris, France), after adding 100 μL of DMSO to dissolve the crystals of formazan. The results were expressed as a percentage of viability relative to the negative control without a peptide, according to the formula: (Viability percentage = (DO544 nm peptide/DO544 nm control) × 100). […]

[4] = test system: A. baumannii MDR; experiment: AFM average surface roughness of treated bacteria; type: cell-based, Acinetobacter baumannii; conditions: AFM tapping mode, bacteria from MIC assay wells after 24 h, n = 10 areas of 0.3 × 0.3 µm; non-treated bacteria 25.77 nm
Text: In order to understand how our cationic peptide eliminates bacteria, we must consider its effect on the outer membrane found in Gram-negative bacteria. Here, we use atomic force microscopy (AFM) to directly investigate K4S4(1-16) interactions with the outer membrane of A. baumannii and characterize the biophysical consequences of K4S4(1-16) treatment. However, Gram-negative bacteria are complex organisms, with two membranes and molecular machinery dedicated to maintaining membrane stability. The images show the morphology of a clinical strain of A. baumannii before and after treatment with the derivative. […] The cell differed considerably from the cocci-bacilli-shaped cell observed without peptide treatment. Therefore, this cationic peptide appears to have a highly disruptive effect. […]
With the objective of observing possible morphological alterations caused by the action of an active peptide from the DRS families, bacterial growth control and bacteria treated with K4S4 (1-16) were evaluated using Atomic Force Microscopy (AFM). […]
Statistical analyses were performed with the GraphPad Prism 9.0 software (GraphPad Software Inc.) for cell viability assays. The difference between the average roughness (Ra) was statistically analyzed using t Test in the GraphPad Prism 8.0 software. […]

[5] = test system: HEp-2 cells; conditions: cited from earlier work
Protocol: (§3) Cells were exposed to increasing concentrations of peptides, ranging from 1.5 to 100 μg/mL. The cytotoxicity of DRSs was concentration dependent, and peptide 50% cytotoxic concentration (CC50) values were determined (Table 2).

[6] = cited from earlier work
[7] = cited from earlier work; remark: listed apart in the source
Protocol: as §3

[8] = test system: multi-drug resistant Salmonella Enteritidis; conditions: cited from earlier work

## C[C@@H](O)[C@H]1C(=O)N2C(C(=O)O)=C(S[C@@H]3CN[C@H](C(=O)N(C)C)C3)[C@H](C)[C@H]12 [meropenem]
[1]; Acinetobacter baumannii, read-out: A. baumannii MBC
  MBC: 64 µg/mL (≈ 167 µM)
[2]; Acinetobacter baumannii, 24 h, read-out: A. baumannii MIC
  MIC: 32 µg/mL (≈ 83.4 µM)

## ALWKTLLKKVLKAAAK [K4S4(1-16)]
[3]
  CC50 Hep-2 Cells: 68.9 µg/mL
[1]
  A. baumannii MBC: 12.5 µg/mL
[4]
  roughness on the cell surface after treatment: 43.41 nm
[2]
  A. baumannii MIC: 6.25 µg/mL

## ALWKTLLKKVLKAAAKAALKAVLVGANA [K4K20S4]
[1]
  A. baumannii MBC: 6.25 µg/mL
[2]
  A. baumannii MIC: 3.125 µg/mL

## ALWMTLLKKVLKAAAKAALNAVLVGANA-OH [S4]
[5]
  maximal non-cytotoxic concentration: 16 µg/mL
[1]
  A. baumannii MBC: 25 µg/mL
[2]
  A. baumannii MIC: 12.5 µg/mL
[6]
  hemolytic effect: potent hemolytic effect

## GLKKKIKEVGKEAAKAAAKAAGKAALGAVSEAV [K3K4B2]
[1]
  A. baumannii MBC: 12.5 µg/mL
[2]
  A. baumannii MIC: 6.25 µg/mL

## GLWSKIKEVGKEAAKAAAKAAGKAALGAVSEAV-OH [B2]
[1]
  A. baumannii MBC: 25 µg/mL
[2]
  A. baumannii MIC: 12.5 µg/mL

## lactoferricin (17–30): other AMP from the literature (CLAAPRKNVRWCTI; ends and bridges not checked; cysteine pairing not given here; UniProt P24627 17-30, looked up, fragment)
[7]; 1X and 2X MIC
  cytotoxicity at lower concentrations: negligible cytotoxicity
[7]; 4X MIC
  cytotoxicity at 4X MIC: slightly higher cytotoxicity
[8]
  MIC: 128 µg/mL
